We go through eleven compounds from ChEMBL document CHEMBL1201862, “PubChem BioAssay data set” (2004).

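Results reflect a 48-hour exposure of cells in 96-well plates to compound at five concentrations. The concentration for 50% growth inhibition is given as GI50.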 The source made the active and inactive calls. Cut-off read from the data, not from the text of the source: active = GI50 up to about 1.1 µM and inactive = higher.

Among the test systems are CAKI-1; SW-620; SN12C; HCT-15; UACC-62; NCI-H460; OVCAR-8; SNB-75; SK-MEL-28; MOLT-4; NCI-H226; SR; NCI-H23; SF-539; A549; SNB-19; DLD-1; EKVX; MDA-MB-435; DU-145.
Holding throughout (experiment): inhibition of tumour cell growth, NCI panel, 48 h

Take `COC(=O)C1C(=O)NC2(C)CC1c1ccccc1O2` (centres undefined): the GI50 is > 100 µM (inactive) in the assay on CAKI-1; > 100 µM (inactive) in the assay on SW-620; > 100 µM (inactive) in the assay on SN12C; above 100 µM with HCT-15; > 100 µM (inactive) in the assay on UACC-62; > 100 µM (inactive) with NCI-H460. Also, the GI50 in the assay with OVCAR-8 is > 100 µM (inactive); in the assay on SNB-75, 62.7 µM (inactive); with SK-MEL-28 it was > 100 µM (inactive); in the assay on MOLT-4, > 100 µM (inactive); in the assay with NCI-H226, > 100 µM (inactive); with SR it was > 100 µM (inactive). Also, the GI50 with NCI-H23, in the assay on SF-539, with A549, in the assay on SNB-19 and in the assay with DLD-1 was > 100 µM (inactive) throughout.

As to `O=C(CC1(O)C(=O)Nc2c(Cl)cc(Cl)cc21)c1ccc(Br)cc1` (centres undefined), the GI50 is 16.1 µM (inactive) in the assay on CAKI-1; 26.9 µM (inactive) with SW-620; 33.1 µM (inactive) in the assay with SN12C; 35 µM with HCT-15; 9.08 µM (inactive) in the assay with UACC-62; 38.6 µM (inactive) in the assay on NCI-H460. The GI50 was 33.8 µM (inactive) in the assay with OVCAR-8; 17.1 µM (inactive) with SNB-75; 19.7 µM (inactive) in the assay with SK-MEL-28; 22.1 µM (inactive) with MOLT-4; 14.9 µM (inactive) with NCI-H226; 19.8 µM (inactive) in the assay with SR. Moreover, the GI50 in the assay on NCI-H23 is 14 µM (inactive); with SF-539 it was 16.3 µM (inactive); in the assay on EKVX, 15.2 µM (inactive); in the assay with A549, 20.7 µM (inactive); with SNB-19 it was 16.3 µM (inactive); with DLD-1 it was 13.2 µM (inactive).

Turning to `COc1cc([C@H]2c3[nH]c4ccccc4c3C[C@H]3COC(=O)N32)cc(OC)c1O`, the GI50 with CAKI-1 is 0.0395 µM (active); in the assay on SW-620, 0.0268 µM (active); in the assay with SN12C it was 2.43 µM (inactive); in the assay on HCT-15 it was 0.0256 µM; in the assay with UACC-62 it was 0.0209 µM (active); in the assay on NCI-H460 it was 0.0312 µM (active). For the same compound, the GI50 is 0.131 µM (active) in the assay on OVCAR-8; 0.0324 µM (active) in the assay with SNB-75; 1.66 µM (inactive) in the assay with SK-MEL-28; 0.0488 µM (active) in the assay on MOLT-4; 0.422 µM (active) in the assay with NCI-H226; 0.0132 µM (active) in the assay on SR. The GI50 in the assay with NCI-H23 was 0.0748 µM (active); with MDA-MB-435, < 0.01 µM (active); with SF-539, 0.0396 µM (active); in the assay with EKVX, 0.8 µM (active); in the assay with A549, 0.0792 µM (active); in the assay on SNB-19, 4.9 µM (inactive). Moreover, in the assay on DLD-1, the GI50 was 0.132 µM (active).

As to `Cc1[nH]c2ccccc2c1C(=O)CC1(O)C(=O)Nc2ccccc21` (centres undefined), the GI50 in the assay on CAKI-1 was > 100 µM (inactive); in the assay on SW-620 it was > 100 µM (inactive); in the assay on SN12C it was > 100 µM (inactive); in the assay on HCT-15, above 100 µM; in the assay on UACC-62, > 100 µM (inactive); with NCI-H460, > 100 µM (inactive). The GI50 in the assay on SNB-75, with SK-MEL-28, with MOLT-4, with NCI-H226, in the assay on SR and with NCI-H23 was > 100 µM (inactive) in each case. In addition, the GI50 in the assay on SF-539 was > 100 µM (inactive); in the assay with EKVX, 73.1 µM (inactive); in the assay on A549, > 100 µM (inactive); in the assay with SNB-19, > 100 µM (inactive); in the assay with DLD-1, > 100 µM (inactive).

For the compound `CCOC(=O)CC(C)C1(C=O)CCCCC1=O` (centres undefined), the GI50 was > 100 µM (inactive) with CAKI-1; > 100 µM (inactive) with SN12C; 38 µM with HCT-15; > 100 µM (inactive) in the assay with UACC-62; 60 µM (inactive) with NCI-H460; > 100 µM (inactive) with OVCAR-8. The GI50 with SNB-75 is > 100 µM (inactive); in the assay on SK-MEL-28, > 100 µM (inactive); in the assay on MOLT-4 it was > 100 µM (inactive); in the assay with NCI-H226, > 100 µM (inactive); in the assay on SR, 19.9 µM (inactive); with SF-539 it was > 100 µM (inactive). For the same compound, the GI50 in the assay on EKVX is > 100 µM (inactive); with A549 it was > 100 µM (inactive); in the assay on SNB-19 it was > 100 µM (inactive); in the assay on DLD-1, 56 µM (inactive).

With `N#C/C(=C1\N=NC(N)=C(c2ccc(Cl)cc2)C1=O)c1ccc(Cl)cc1`, the GI50 in the assay with CAKI-1, in the assay with SW-620, with SN12C, in the assay on UACC-62, in the assay on NCI-H460 and with OVCAR-8 was > 100 µM (inactive) in each case. For the same compound, the GI50 in the assay on SNB-75, in the assay with SK-MEL-28, in the assay on MOLT-4, with NCI-H226, in the assay on SR and in the assay on NCI-H23 was > 100 µM (inactive) each time. Moreover, the GI50 in the assay on SF-539, in the assay on EKVX, with A549, in the assay on SNB-19 and with DLD-1 was > 100 µM (inactive) throughout.

Regarding `COc1ccc2c(c1)CCC1C3(CCCC21C)OCCO3` (centres undefined), the GI50 in the assay on CAKI-1 was 34.6 µM (inactive); in the assay with SW-620, 33.9 µM (inactive); in the assay on SN12C, 16.3 µM (inactive); with HCT-15, 17.1 µM; with UACC-62, 15.4 µM (inactive); with NCI-H460, 16.3 µM (inactive). The GI50 was 17.5 µM (inactive) in the assay with OVCAR-8; 19.8 µM (inactive) with SNB-75; 20.2 µM (inactive) with SK-MEL-28; 14.4 µM (inactive) in the assay on MOLT-4; 17.4 µM (inactive) with NCI-H226; 20.4 µM (inactive) with SR. Moreover, the GI50 in the assay on NCI-H23 was 15.6 µM (inactive); with SF-539 it was 12.9 µM (inactive); in the assay with EKVX, 16.8 µM (inactive); in the assay with A549, 26.9 µM (inactive); in the assay on SNB-19 it was 28.9 µM (inactive); with DLD-1, 15.7 µM (inactive).

Take `COc1cc2c(cc1O)CCN[C@@]21CS[C@H]2c3c(OC(C)=O)c(C)c4c(c3C(COC1=O)N1C2C2c3c(cc(C)c(OC)c3O)CC([C@@H]1O)N2C)OCO4` (some centres undefined): the GI50 is < 0.0001 µM (active) in the assay with CAKI-1; < 0.0001 µM (active) in the assay on SW-620; < 0.0001 µM (active) in the assay with SN12C; 0.0001 µM with HCT-15; < 0.0001 µM (active) in the assay with UACC-62; < 0.0001 µM (active) in the assay on DU-145. The GI50 is < 0.0001 µM (active) with NCI-H460; < 0.0001 µM (active) with OVCAR-8; 0.00131 µM (active) in the assay on SNB-75; < 0.0001 µM (active) in the assay with SK-MEL-28; < 0.0001 µM (active) with MOLT-4; < 0.0001 µM (active) in the assay with NCI-H226. Also, the GI50 in the assay with SR was < 1e-06 µM (active); in the assay on NCI-H23, < 0.0001 µM (active); with MDA-MB-435, < 0.0001 µM (active); with SF-539 it was < 0.0001 µM (active); in the assay on EKVX it was < 0.0001 µM (active); in the assay on A549, < 0.0001 µM (active). In addition, the GI50 in the assay with SNB-19 was < 0.0001 µM (active); in the assay on DLD-1, < 1e-06 µM (active).

`COc1ccc(CN2C(=O)[C@@H]3Cc4c(OC)c(C)c(OC)c(OC)c4[C@H](/C2=C\c2cc(OC)c(OC)c(C)c2OC)N3C(=O)OC(C)C)cc1`: the GI50 is 30.3 µM (inactive) with CAKI-1; 94.8 µM (inactive) in the assay on SW-620; > 100 µM (inactive) in the assay on SN12C; 48.6 µM (inactive) in the assay with UACC-62; 15.8 µM (inactive) with NCI-H460; > 100 µM (inactive) in the assay with OVCAR-8. The GI50 is > 100 µM (inactive) in the assay with SNB-75; > 100 µM (inactive) in the assay with SK-MEL-28; 6.97 µM (inactive) in the assay with MOLT-4; 5.57 µM (inactive) with NCI-H226; 6.53 µM (inactive) in the assay on SR; 66.4 µM (inactive) in the assay on NCI-H23. Besides, the GI50 in the assay with SF-539 was > 100 µM (inactive); in the assay on EKVX, 12.2 µM (inactive); in the assay on A549 it was 58.9 µM (inactive); with SNB-19 it was > 100 µM (inactive); in the assay with DLD-1, 69.3 µM (inactive).

In the case of `Cc1cccc2[s+]snc12`, the GI50 in the assay with CAKI-1 was > 78.2 µM (inactive); in the assay on SW-620, 24.2 µM (inactive); in the assay on SN12C, > 69.2 µM (inactive); with HCT-15, above 47.4 µM; in the assay with UACC-62 it was > 100 µM (inactive); with NCI-H460 it was > 100 µM (inactive). Moreover, the GI50 is > 45 µM (inactive) with OVCAR-8; > 100 µM (inactive) in the assay on SNB-75; > 47.5 µM (inactive) with SK-MEL-28; 25.8 µM (inactive) in the assay with MOLT-4; > 100 µM (inactive) in the assay on NCI-H226; 31.3 µM (inactive) in the assay on SR. Besides, the GI50 was > 96.6 µM (inactive) in the assay on NCI-H23; > 100 µM (inactive) in the assay with SF-539; > 51.3 µM (inactive) in the assay with EKVX; > 100 µM (inactive) in the assay on A549; > 100 µM (inactive) in the assay on SNB-19; 26.7 µM (inactive) in the assay on DLD-1.

`C[Si](C)(C)c1ccc(-c2sc(-c3ccc([Si](C)(C)C)s3)c3c2C[Si]2(C3)Cc3c(-c4ccc([Si](C)(C)C)s4)sc(-c4ccc([Si](C)(C)C)s4)c3C2)s1`: the GI50 with CAKI-1 was > 100 µM (inactive); with SW-620, > 100 µM (inactive); in the assay with SN12C, > 100 µM (inactive); in the assay with HCT-15, above 100 µM; in the assay on UACC-62, > 100 µM (inactive); in the assay on NCI-H460, > 100 µM (inactive). For the same compound, the GI50 is > 100 µM (inactive) in the assay with OVCAR-8; 24.9 µM (inactive) in the assay with SNB-75; > 100 µM (inactive) with SK-MEL-28; > 100 µM (inactive) in the assay on MOLT-4; > 100 µM (inactive) with NCI-H226; > 100 µM (inactive) in the assay on SR. Moreover, the GI50 with NCI-H23, in the assay with SF-539, with A549, with SNB-19 and in the assay with DLD-1 was > 100 µM (inactive) each time.
